Test results as given in patent US20250019387A1 (Frontier Medicines Corporation, priority 0001, published 2025).

Legend:
[1] = molecular target: KRAS G12C and cRAF (Ras-binding domain) interaction (Homo sapiens (Human), UniProt P01116, C118S/C51S/C80L/G12C); assay: Inhibition of KRAS G12C and cRAF binding (AlphaScreen); settings: GMPPNP-loaded KRAS G12C, 19-20 hours incubation with compound; read-out: IC50 (Inhibition of KRAS G12C and cRAF Binding)
Method in brief: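 Compounds (DMSO) preincubated 19-20 h at room temperature, then RBD with streptavidin donor and glutathione acceptor beads added in 25 mM Hepes pH 7.4, 150 mM NaCl, 5 mM MgCl2, 0.01% Triton X-100, 2% DMSO for 60-90 min. Emission 570 nm (excitation 680 nm); IC50 by 4-parameter fit. Counter-screen used biotin-AviTag-GST instead of RBD.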

[2] = molecular target: KRAS G12C and PI3Ka (Ras-binding domain) interaction (Homo sapiens (Human), UniProt P01116, C118S/C51S/C80L/G12C); assay: Inhibition of KRAS G12C and PI3Ka binding (AlphaScreen); settings: GMPPNP-loaded KRAS G12C, 2 hours incubation with compound; read-out: PI3Ka RBD IC50
Sequence of KRAS G12C and PI3Ka (Ras-binding domain) interaction (P01116 other isoform, or with tags, fused parts or gaps G12C/C51S/C80L/C118S): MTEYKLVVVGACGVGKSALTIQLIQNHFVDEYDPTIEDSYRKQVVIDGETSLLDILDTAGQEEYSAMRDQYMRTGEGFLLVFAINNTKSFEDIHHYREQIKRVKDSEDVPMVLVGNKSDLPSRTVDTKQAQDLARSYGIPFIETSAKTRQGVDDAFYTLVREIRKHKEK
Description: Compounds were diluted in 100% DMSO and each compound concentration was spotted at 200 nl/well onto low volume, white 384 well plates. […] The KRAS GT2C was diluted in 25 mM Hepes, pH 7.4, 150 mM NaCl, 5 mMv MgCl2, 0.0100 TritonX-100 and 10 μM GMPPNP and added at 10 ul/well to compound-spotted plates resulting in a […] concentration of 2%. Plates were incubated for 2 hours. A mixture of RBD and the AlphaScreen streptavidin donor and nickel chelate acceptor beads diluted in 25 mMv Hepes, pH 7.4, 150 mMv NaCl, 5 mM MgCl2, 0.0100 TritonX-100 and 2% DMSO was then added at 10 ul/well and incubated for 60-90 minutes before the samples were read for emission at 570 nm after excitation of the donor beads at 680 nm. All incubations were performed at room temperature. […] Final assay conditions were 1.5 nM KRAS GT2C, 100 nM RBD, 1.25 ug/ml of AlphaScreen donor beads and 10 μg/ml AlphaLISA acceptor beads. IC50S were determined using nonlinear regression fit of [inhibitor]vs. response (4 parameters). […]

Sequence of KRAS G12C and cRAF (Ras-binding domain) interaction (P01116 other isoform, or with tags, fused parts or gaps G12C/C51S/C80L/C118S): as above

SMILES	IC50 [1] [nM]	IC50 [2] [nM]
CN(c1nc(OCC23CCCN2CCC3)nc2c1CCN(c1cccc3cccc(Cl)c13)C2)[C@@H]1CCN(C(=O)/C=C/c2nc(C3CC3)no2)C1 [Example 161, (R,E)-1-(3-((7-(8-chloronaphthalen-1-yl)-2-((hexahydro-1H-pyrrolizin-7a-yl)methoxy)-5,6,7,8-tetrahydropyrido[3,4-d]pyrimidin-4-yl)(methyl)amino)pyrrolidin-1-yl)-3-(3-cyclopropyl-1,2,4-oxadiazol-5-yl)prop-2-en-1-one]	10 to 100	10 to 100
CN(CC1CN(C(=O)/C=C/c2nc(C3CC3)no2)C1)c1nc(OCC23CCCN2CCC3)nc2c(F)c(-c3cccc4cccc(Cl)c34)ncc12 [Example 173, (E)-1-(3-(((7-(8-chloronaphthalen-1-yl)-8-fluoro-2-((tetrahydro-1H-pyrrolizin-7a(5H)-yl)methoxy)pyrido[4,3-d]pyrimidin-4-yl)(methyl)amino)methyl)azetidin-1-yl)-3-(3-cyclopropyl-1,2,4-oxadiazol-5-yl)prop-2-en-1-one]	10 to 100	10 to 100
CN1C[C@H](O)C[C@H]1C#CC(=O)N1CC[C@@H](N(C)c2nc(OC[C@@]34CCCN3C[C@H](F)C4)nc3c(F)c(-c4cccc5cccc(Cl)c45)ncc23)C1 [Example 247, 1-((R)-3-((7-(8-chloronaphthalen-1-yl)-8-fluoro-2-(((2R,7aS)-2-fluorohexahydro-1H-pyrrolizin-7a-yl)methoxy)pyrido[4,3-d]pyrimidin-4-yl)(methyl)amino)pyrrolidin-1-yl)-3-((2S,4R)-4-hydroxy-1-methylpyrrolidin-2-yl)prop-2-yn-1-one]	< 10	10 to 100
CN1C[C@@H](O)C[C@@H]1C#CC(=O)N1CC[C@@H](N(C)c2nc(OC[C@@]34CCCN3C[C@H](F)C4)nc3c(F)c(-c4cccc5cccc(Cl)c45)ncc23)C1 [Example 248, 1-((R)-3-((7-(8-chloronaphthalen-1-yl)-8-fluoro-2-(((2R,7aS)-2-fluorohexahydro-1H-pyrrolizin-7a-yl)methoxy)pyrido[4,3-d]pyrimidin-4-yl)(methyl)amino)pyrrolidin-1-yl)-3-((2R,4S)-4-hydroxy-1-methylpyrrolidin-2-yl)prop-2-yn-1-one]	10 to 100	10 to 100
C=CC(=O)N1CC[C@@H](N(C)c2nc(OC[C@@]34CCCN3C[C@H](F)C4)nc3c(F)c(-c4cccc5cccc(F)c45)ncc23)C1 [Example 258, 1-((R)-3-((8-fluoro-7-(8-fluoronaphthalen-1-yl)-2-(((2R,7aS)-2-fluorotetrahydro-1H-pyrrolizin-7a(5H)-yl)methoxy)pyrido[4,3-d]pyrimidin-4-yl)(methyl)amino)pyrrolidin-1-yl)prop-2-en-1-one]	10 to 100	10 to 100

More lines, now with the values ahead:

IC50 [1] [nM]	IC50 [2] [nM]	SMILES
10 to 100	10 to 100	CN(c1nc(OC[C@@]23CCCN2C[C@H](F)C3)nc2c(F)c(-c3cccc4cccc(Cl)c34)ncc12)[C@@H]1CCN(C(=O)/C=C/c2nc([C@H]3C[C@@H]3F)no2)C1 [Example 140, (E)-1-((R)-3-((7-(8-chloronaphthalen-1-yl)-8-fluoro-2-(((2R,7aS)-2-fluorohexahydro-1H-pyrrolizin-7a-yl)methoxy)pyrido[4,3-d]pyrimidin-4-yl)(methyl)amino)pyrrolidin-1-yl)-3-(3-((1R,2S)-2-fluorocyclopropyl)-1,2,4-oxadiazol-5-yl)prop-2-en-1-one]
10 to 100	10 to 100	CCc1noc(/C=C/C(=O)N2CC(CN(C)c3nc(OCC45CCCN4CCC5)nc4c3CCN(c3cccc5cccc(Cl)c35)C4)C2)n1 [Example 168, (E)-1-(3-(((7-(8-chloronaphthalen-1-yl)-2-((hexahydro-1H-pyrrolizin-7a-yl)methoxy)-5,6,7,8-tetrahydropyrido[3,4-d]pyrimidin-4-yl)(methyl)amino)methyl)azetidin-1-yl)-3-(3-ethyl-1,2,4-oxadiazol-5-yl)prop-2-en-1-one]
10 to 100	10 to 100	CN(CC1CN(C(=O)/C=C/c2nc(C3CC3)no2)C1)c1nc(OCC23CCCN2CCC3)nc2c1CCN(c1cccc3cccc(Cl)c13)C2 [Example 172, (E)-1-(3-(((7-(8-chloronaphthalen-1-yl)-2-((hexahydro-1H-pyrrolizin-7a-yl)methoxy)-5,6,7,8-tetrahydropyrido[3,4-d]pyrimidin-4-yl)(methyl)amino)methyl)azetidin-1-yl)-3-(3-cyclopropyl-1,2,4-oxadiazol-5-yl)prop-2-en-1-one]
100 to 500	10 to 100	C=CC(=O)N1CC[C@@H](N(C)c2nc(OCC34CCCN3CCC4)nc3c(F)c(-c4cccc5cccc(F)c45)ncc23)C1 [Example 259, (R)-1-(3-((8-fluoro-7-(8-fluoronaphthalen-1-yl)-2-((tetrahydro-1H-pyrrolizin-7a(5H)-yl)methoxy)pyrido[4,3-d]pyrimidin-4-yl)(methyl)amino)pyrrolidin-1-yl)prop-2-en-1-one]
